# Laboratory results: patent US20260137807A1, “COMPOSITIONS AND METHODS FOR DELIVERING A MACROMOLECULE TO A CELL” (AstraZeneca AB, priority 2022, published 2026)
# What was measured:
# Type in all cases: cell-based
# Huh7 mCherry-Gal9 cells = experiment: mCherry-GAL9 recruitment assay; conditions: for relocalisation of Gal9 from cytosolic to punctate: 10-point dose titration, 2 hours, FIG. 4; for window in concentration between induction of endosomal rupture and cytotoxicity: Huh7, FIG. 5; for quantitation of Gal9 recruitment over time: Huh7, FIG. 7
# Text: (§1) All compounds were subjected to a mCherry-GAL9 recruitment assay. Under normal conditions, mCherry-GAL9 is homogenously dispersed in the cytosol. When an endosomal leakage event is detected, mCherry-GAL9 translocates to the damaged endosome (Du Rietz et al. (2020) Nat. Commun. 11:1809) The resulting localization pattern of discrete puncta can be visualized and quantitated.
# (§2) HeLa and Huh7 cell lines stably expressing mCherry-GAL9 were generated as described by (bioRxiv) (Munson, M. et al. (2021) Communications Biology, 4(211): 1-14) and seeded into 384-well CellCarrier Ultra plates (PerkinElmer: 6007558) at 3000 or 3500 cells/well respectively, 16 h before experimental usage.
# (§3) Dose-response curves of select compounds were generated using an Echo 655T acoustic dispenser (Labcyte) to dispense the indicated compounds into source plates (Greiner: 781280) containing growth media. At experimental start points, media containing appropriate compounds and doses was transferred to plates using a liquid handling robot (Agilent Bravo).
# (§4) At assay endpoints, cells were washed 2× PBS at RT and fixed in 4% PFA (VWR: 9713.1000) for 15 mins/RT. Cells were washed a further 3× PBS before the addition of PBS+1 μg/ml Hoechst 33342 (ThermoFisher Scientific: H21492) for a minimum of 1 h before imaging.
# (§5) Plates were imaged using a spinning-disk confocal microscope (Yokogawa: CV7000) with a 20× objective (NA 0.75). Images were processed utilizing Columbus image-analysis software (PerkinElmer: v2.9.0) to identify and quantify cells and mCherry-GAL9 structures. The resulting data were processed and normalized in Spotfire (Tibco: v10.3) and plotted in Prism (Graphpad: v8.0.1). Image panels were assembled using the FigureJ plugin for FIJI. (Mutterer and Zinck (2013) J. Microsc. 252(1):89-91).
# (§6) Cells were subjected to a 10-point concentration dilution (0-15 μM) for 2 hours and then fixed and imaged (FIG. 3 and FIG. 4). Images were analyzed and curves were generated from both mCherry-GAL9 puncta quantitation and cell survival as determined by nuclear morphology (FIG. 5). The GAL9 recruitment response support the functional splice-switching data with SSOs, confirming the mCherry-GAL9 assay as a powerful tool for screening endosomolytic compounds and supporting the hypothesis that AZ2467 (Compound 6) and AZ4800 (Compound 2) promote SSO activity by inducing endosomal rupture. The GAL9 assay was again conducted, this time in live cells for 4 hours with select compounds for screening. Compounds were screened at 5 μM (FIG. 6-8) or 0.3125-10 μM (FIG. 35-38). FIG. 39 and FIG. 47 provide results for select compounds at various doses 0.3125-10 μM.
# HeLa mCherry-Gal9 cells = experiment: mCherry-GAL9 recruitment assay; conditions: for relocalisation of Gal9 from cytosolic to punctate: 10-point dose titration, 2 hours, FIG. 3; for window in concentration between induction of endosomal rupture and cytotoxicity / quantitation of Gal9 recruitment over time: HeLa; for window in concentration between induction of endosomal rupture and cytotoxicity: FIG. 5; for quantitation of Gal9 recruitment over time: FIG. 8
# Text: as §1, §2, §3, §4, §5, §6
# HeLa_Luc705 cells = experiment: Splice switching activity assay, 24 hr SMC treatment, Examples 4B/4D
# Description: (§7) HeLa_Luc705 cells were seeded in 96-well plates at 10,000 cells per well in growth media with 2 μM Luc705-SSO or 1 μM Luc705-SSO. The various SMCs were diluted directly into prepared growth media. After 24 hr to allow adherence and SSO internalization, 10 μl of diluted SMC was added into each well at indicated concentrations. For a positive control, SSOs were complexed with Lipofectamine 2000 for 30 min at RT and cells treated with a final concentration of 200 nM. ON concentrations above 200 nM would require LF2000 to be used in excess of the cells' toxicity threshold. After 24 hr treatment, cells were lysed with 0.1% TritonX-100 (Sigma Aldrich, cat no. X100) in 1× PBS (Gibco, cat no. 10010023).
# (§8) For the detection of luciferase activity, 30 μL of cell lysate was transferred to white-walled plates. The luciferase intensity in each well was immediately measured via luminometer following auto-injection of 25 μL Luciferin substrate as per the Promega Firefly Luciferase Assay System. The timing parameters of photon measurements were optimized for this procedure.
# as §7, with “The” for “HeLa_Luc705 cells were seeded in 96-well plates at 10,000 cells per well in growth media with 2 μM Luc705-SSO or 1 μM Luc705-SSO. The”
# N2A_Luc705 cells = experiment: Splice switching activity assay, 24 hr SMC treatment, Examples 4C/4D; conditions: compounds at 5 μM, 1 μM Luc 705 SSO, FIG. 25B
# Description: as §7, with “U2OS_Luc705 and N2A_Luc705” for “HeLa_Luc705”, “with” for “with 2 μM Luc705-SSO or”
# as §8
# as §7, with “The” for “HeLa_Luc705 cells were seeded in 96-well plates at 10,000 cells per well in growth media with 2 μM Luc705-SSO or 1 μM Luc705-SSO. The”
# U2OS_Luc705 cells = experiment: as above; conditions: compounds at 5 μM, 1 μM Luc 705 SSO, FIG. 25A
# Description: as §7, with “U2OS_Luc705 and N2A_Luc705” for “HeLa_Luc705”, “with” for “with 2 μM Luc705-SSO or”
# as §8
# as §7, with “The” for “HeLa_Luc705 cells were seeded in 96-well plates at 10,000 cells per well in growth media with 2 μM Luc705-SSO or 1 μM Luc705-SSO. The”
# HeLa Luc705 cells = experiment: Splice switching activity assay (Luc705 luciferase reporter), Example 4A
# Text: HeLa Luc705 and Huh7 Luc705 cells were used to screen and characterize the SMC generated in Example 2 for their ability to increase levels of an SSO-induced splice variant by co-treatment of the cells with the SSO and SMC. The Luc705 reporter construct was used for quantitation of luciferase protein produced as a result of functional SSO delivery. (Kang et al. (1998) Biochemistry, 37(18):6235-6239; Rocha et al. (2016) Four Novel Splice-Switch Reporter Cell Lines: Distinct Impact of Oligonucleotide Chemistry and Delivery Vector on Biological Activity. Nucleic Acid Ther. 26(6):381). Briefly, a plasmid carrying the luciferase coding sequence interrupted by an insertion of intron 2 from β-globin pre-mRNA carrying a cryptic splice site was stably transfected into cells. Unless the aberrant slice site was masked by an antisense oligonucleotide, the pre-mRNA of luciferase was improperly processed.
# HeLa Luc705 and Huh7 Luc705 cells were seeded in 96-well plates at 10,000 cells per well in growth media containing 1 μM Luc705-SSO and incubated to allow adherence and oligo internalization. After 24 hours, 10 μl of SMC diluted in Growth Media (DMEM+10% FBS) was added into each well. After 2 hours, media was removed from the wells and replaced with fresh growth media for 4 hours to allow for translation of the variant proteins. The media was then removed, and cells were lysed with 0.1% Triton-PBS.
# To detect luciferase activity, 30 μL of cell lysate was transferred to white-walled 96-well plates. Luciferase intensity in each well was measured using a GloMax® 96 Microplate Luminometer machine (Promega) following auto-injection of 25 μL Luciferin substrate (Firefly Luciferase Assay System: Promega) per well. Photon measurements were acquired for 10 seconds, starting 2 seconds after injection.
# To determine whether AZ4800 (Compound 2, FIG. 1B) and SSO must be present in the cell media simultaneously for Compound 2 to produce its synergistic effects, the treatment plan was modified from the UNC2383 treatment plan detailed by Wang et al. (2017) ACS Chem. Biol. 12(8):1999-2007 to include a 24 hour pre-treatment with SSO, followed by the addition of Compound 2 for two hours, followed by the removal of SSO and Compound 2, and finally a 4-hour protein translation period (FIG. 10).
# mCherry-GAL9 cells = experiment: mCherry-GAL9 assay in live cells for 4 hours, screening; conditions: 5 μM (FIG. 6-8)
# Description: as §6
smiles,measurement,setting,value
"O=C(Nc1nc2ccccc2n1CCN1CCCC1)c1cc2cc(Cl)ccc2o1 [UNC2383, reference compound]",relocalisation of Gal9 from cytosolic to punctate,Huh7 mCherry-Gal9 cells,dose-dependent manner
same,window in concentration between induction of endosomal rupture and cytotoxicity,Huh7 mCherry-Gal9 cells,narrow window
same,quantitation of Gal9 recruitment over time,Huh7 mCherry-Gal9 cells,time-dependent endosomal rupture
same,relocalisation of Gal9 from cytosolic to punctate,HeLa mCherry-Gal9 cells,dose-dependent manner
same,window in concentration between induction of endosomal rupture and cytotoxicity,HeLa mCherry-Gal9 cells,narrow window
CCOc1nn(C2CCNCC2)cc1Nc1ncc(C(F)(F)F)c(-c2c[nH]c3ccccc23)n1 [Compound 7],increase in SSO activity,"HeLa_Luc705 cells; 2 μM Luc 705 SSO, FIG. 26",induced an increase in SSO activity
same,increase in SSO activity,"HeLa_Luc705 cells; 2 μM SSO, FIG. 23A",increase in SSO activity
COc1nn(C2CCN(C)CC2)cc1Nc1ncc(F)c(-n2ccc3c(C#N)cccc32)n1 [Compound 8],dose from which GAL9+ remodelling is induced,Huh7 mCherry-Gal9 cells; FIG. 40,≥ 2.5 µM
same,"GAL9 response, rank among exemplified compounds","Huh7 mCherry-Gal9 cells; doses 1.25-5 μM, 1, 2, 16 hours, FIG. 33",second most potent
same,"GAL9 response, rank among exemplified compounds","HeLa mCherry-Gal9 cells; doses 1.25-5 μM, 1, 2, 16 hours, FIG. 34",second most potent
same,increase in SSO activity relative to oligo only,N2A_Luc705 cells,induced an increase in SSO activity relative to oligo only
same,increase in SSO activity relative to oligo only,U2OS_Luc705 cells,induced an increase in SSO activity relative to oligo only
same,increase in SSO activity,"HeLa_Luc705 cells; 2 μM Luc 705 SSO, FIG. 24",increase in SSO activity
same,increase in SSO activity,"HeLa_Luc705 cells; 2 μM Luc 705 SSO, FIG. 26",induced an increase in SSO activity
COc1nn(C2CCNCC2)cc1Nc1ncc(C#N)c(-n2ccc3c(C(F)(F)F)cccc32)n1 [Compound 20],increase in SSO activity relative to oligo only,U2OS_Luc705 cells,induced an increase in SSO activity relative to oligo only
CCOc1nn(C2CCNCC2)cc1Nc1ncc(F)c(-n2ccc3c(C#N)cccc32)n1 [Compound 21],increase in SSO activity relative to oligo only,N2A_Luc705 cells,induced an increase in SSO activity relative to oligo only
same,increase in SSO activity relative to oligo only,U2OS_Luc705 cells,induced an increase in SSO activity relative to oligo only
same,increase in SSO activity,"HeLa_Luc705 cells; 2 μM Luc 705 SSO, FIG. 24",increase in SSO activity
same,increase in SSO activity,"HeLa_Luc705 cells; 2 μM Luc 705 SSO, FIG. 26",induced an increase in SSO activity
CCOc1nn(C2CCNCC2)cc1Nc1ncc(Cl)c(-c2c[nH]c3ccccc23)n1 [Compound 6],increase in functional SSO activity,"HeLa Luc705 cells; 5 μM compound, 1 μM SSO or 100 nM SSO, FIG. 2B",increase in activity
same,increase in SSO activity,"HeLa Luc705 cells; up to 6 hours at 10 μM, FIG. 11B",200 fold
same,relocalisation of Gal9 from cytosolic to punctate,Huh7 mCherry-Gal9 cells,dose-dependent manner
same,window in concentration between induction of endosomal rupture and cytotoxicity,Huh7 mCherry-Gal9 cells,narrow window
same,quantitation of Gal9 recruitment over time,Huh7 mCherry-Gal9 cells,time-dependent endosomal rupture
same,relocalisation of Gal9 from cytosolic to punctate,HeLa mCherry-Gal9 cells,dose-dependent manner
same,window in concentration between induction of endosomal rupture and cytotoxicity,HeLa mCherry-Gal9 cells,narrow window
same,quantitation of Gal9 recruitment over time,HeLa mCherry-Gal9 cells,time-dependent endosomal rupture
same,"GAL9 recruitment, reason for selection for further characterization",mCherry-GAL9 cells,efficacy at shorter-term timepoints
COc1nn(C2CCNCC2)cc1Nc1ncc(F)c(-c2c[nH]c3cccc(C)c23)n1 [Compound 25],increase in SSO activity relative to oligo only,U2OS_Luc705 cells,induced an increase in SSO activity relative to oligo only
COc1ccc2c(-c3nc(Nc4cn(C5CCNCC5)nc4OC)ncc3Cl)c[nH]c2c1 [Compound 5],quantitation of Gal9 recruitment over time,Huh7 mCherry-Gal9 cells,time-dependent endosomal rupture
same,quantitation of Gal9 recruitment over time,HeLa mCherry-Gal9 cells,time-dependent endosomal rupture
same,"GAL9 recruitment, reason for selection for further characterization",mCherry-GAL9 cells,efficacy at shorter-term timepoints
COc1nn(C2CCNCC2)cc1Nc1ncc(F)c(-n2ccc3ccc(C#N)cc32)n1 [Compound 22],increase in SSO activity relative to oligo only,N2A_Luc705 cells,induced an increase in SSO activity relative to oligo only
same,increase in SSO activity relative to oligo only,U2OS_Luc705 cells,induced an increase in SSO activity relative to oligo only
